Assay results reported in the supplement of paper PMC10307832.

Key:
Experiment in all cases: relative viability (nuclei count vs DMSO), 5 days (fraction); higher = more cells survive
[1] = compound: COc1cc2ncn(-c3cc(OCc4ccccc4C(F)(F)F)c(C(N)=O)s3)c2cc1OC + CC(=O)Nc1cccc(-n2c(=O)n(C3CC3)c(=O)c3c(Nc4ccc(I)cc4F)n(C)c(=O)c(C)c32)c1 [Trametinib] (partner 0.02 µM)
In short: (§1)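 After 5 days of treatment, lung cancer cells in 1536-well plates were fixed and stained in a single step (final 0.05% Triton X-100, 1% formaldehyde, 1 ug/ml Hoechst) and their nuclei counted on 4× images. Treatment had been applied by pin tool the day after seeding as one drug alone or as a fixed anchor-drug dose with five library-drug doses (not always all listed) in √10 steps. Relative viability is the nuclei count of treated wells divided by that of vehicle wells, and values are medians of duplicate plates.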

[2] = compound: COc1cc2ncn(-c3cc(OCc4ccccc4C(F)(F)F)c(C(N)=O)s3)c2cc1OC + CC1(C)CCC(c2ccc(Cl)cc2)=C(CN2CCN(c3ccc(C(=O)NS(=O)(=O)c4ccc(N[C@H](CCN5CCOCC5)CSc5ccccc5)c(S(=O)(=O)C(F)(F)F)c4)cc3)CC2)C1 [Navitoclax] (partner 0.5 µM)
In short: as §1

[3] = compound: COc1cc2ncn(-c3cc(OCc4ccccc4C(F)(F)F)c(C(N)=O)s3)c2cc1OC + Nc1nc2[nH]cc(CCc3ccc(C(=O)N[C@@H](CCC(=O)O)C(=O)O)cc3)c2c(=O)[nH]1 [Pemetrexed] (partner 0.2 µM)
In short: as §1

[4] = compound: COc1cc2ncn(-c3cc(OCc4ccccc4C(F)(F)F)c(C(N)=O)s3)c2cc1OC + N=C(N)NC(=N)NCCc1ccccc1 [Phenformin] (partner 250 µM)
In short: as §1

| Cell Line | relative viability ([1]; first compound 0.05 µM) | relative viability ([1]; first compound 0.1581 µM) | relative viability ([1]; first compound 0.5 µM) | relative viability ([1]; first compound 1.581 µM) | relative viability ([1]; first compound 5 µM) | relative viability ([2]; first compound 0.05 µM) | relative viability ([2]; first compound 0.1581 µM) | relative viability ([2]; first compound 0.5 µM) | relative viability ([2]; first compound 1.581 µM) | relative viability ([2]; first compound 5 µM) | relative viability ([3]; first compound 0.05 µM) | relative viability ([3]; first compound 0.1581 µM) | relative viability ([3]; first compound 0.5 µM) | relative viability ([3]; first compound 1.581 µM) | relative viability ([3]; first compound 5 µM) | relative viability ([4]; first compound 0.05 µM) | relative viability ([4]; first compound 0.1581 µM) | relative viability ([4]; first compound 0.5 µM) | relative viability ([4]; first compound 1.581 µM) | relative viability ([4]; first compound 5 µM) |
| --- | --- | --- | --- | --- | --- | --- | --- | --- | --- | --- | --- | --- | --- | --- | --- | --- | --- | --- | --- | --- |
| NCI-H441 | 0.537 | 0.423 | 0.156 | 0.133 | 0.113 | 0.623 | 0.405 | 0.233 | 0.151 | 0.164 | 0.248 | 0.27 | 0.189 | 0.148 | 0.158 | 0.837 | 0.636 | 0.196 | 0.196 | 0.227 |
| NCI-H1793 | 0.253 | 0.371 | 0.373 | 0.298 | 0.185 | 0.928 | 0.544 | 0.187 | 0.221 | 0.139 | 0.788 | 1.01 | 0.276 | 0.164 | 0.107 | 0.367 | 0.413 | 0.182 | 0.17 | 0.136 |
| NCI-H23 | 0.29 | 0.271 | 0.198 | 0.123 | 0.0957 | 0.913 | 0.773 | 0.284 | 0.157 | 0.103 | 0.648 | 0.583 | 0.208 | 0.184 | 0.112 | 0.798 | 0.821 | 0.433 | 0.129 | 0.125 |
| HARA | 0.423 | – | 0.609 | 0.149 | 0.0917 | 1.18 | 1.06 | 0.531 | 0.26 | 0.0692 | 0.242 | – | 0.24 | 0.176 | 0.126 | 0.469 | 0.395 | 0.364 | 0.0656 | 0.0542 |
| NCI-H1792 | 0.305 | 0.43 | 0.275 | 0.0525 | 0.0332 | 0.633 | 0.627 | 0.604 | 0.188 | 0.13 | 0.683 | 0.688 | 0.0781 | 0.0502 | 0.0387 | 0.324 | 0.279 | 0.256 | 0.0695 | 0.0567 |
| NCI-H1703 | – | – | – | – | – | 1.38 | 1.28 | 0.509 | 0.124 | 0.0953 | – | – | – | – | – | – | – | – | – | – |
| NCI-H2342 | 0.794 | 0.757 | 0.696 | 0.607 | 0.598 | – | – | – | – | – | 0.773 | 0.782 | 0.56 | 0.518 | 0.655 | 0.631 | 0.652 | 0.457 | 0.379 | 0.299 |
| CAL-12T | 0.387 | 0.278 | 0.272 | 0.178 | 0.161 | 1.09 | 1.11 | 0.573 | 0.231 | 0.148 | 0.706 | 1.19 | 0.621 | 0.212 | 0.165 | 0.524 | 0.339 | 0.21 | 0.153 | 0.138 |
| NCI-H838 | 0.518 | 0.523 | 0.412 | 0.192 | 0.0837 | 1.2 | 1.23 | 0.733 | 0.15 | 0.135 | 0.216 | 0.278 | 0.221 | 0.143 | 0.114 | 0.72 | 0.61 | 0.324 | 0.139 | 0.0964 |
| NCI-H2085 | 0.332 | 0.614 | 0.421 | 0.221 | 0.2 | 1.2 | 1.09 | 0.593 | 0.367 | 0.365 | 0.85 | 0.831 | 0.719 | 0.33 | 0.292 | 0.719 | 0.725 | 0.367 | 0.234 | 0.251 |
| NCI-H1395 | 1.11 | 0.977 | 0.828 | 0.39 | 0.287 | 1.17 | 1.17 | 0.611 | 0.447 | 0.384 | 0.761 | 0.828 | 0.663 | 0.395 | 0.27 | 0.459 | 0.438 | 0.386 | 0.335 | 0.295 |
| NCI-H1648 | 0.488 | 0.419 | 0.295 | 0.293 | 0.251 | – | – | – | – | – | 0.855 | 0.805 | 0.513 | 0.243 | 0.219 | – | – | – | – | – |
| NCI-H460 | 0.247 | 0.101 | 0.102 | 0.0172 | 0.0148 | 1.01 | 0.917 | 0.144 | 0.0132 | 0.0107 | 0.0574 | 0.0651 | 0.0638 | 0.0225 | 0.0159 | 0.476 | 0.49 | 0.0454 | 0.0127 | 0.0125 |
| A549 | – | – | – | – | – | 1.25 | 1.19 | 0.294 | 0.0413 | 0.0332 | – | – | – | – | – | 0.152 | 0.145 | 0.0554 | 0.0361 | 0.0267 |
| IA-LM | – | – | – | – | – | 0.89 | 0.411 | 0.0188 | 0.0121 | 0.0246 | – | – | – | – | – | – | – | – | – | – |
| EKVX | 0.36 | 0.307 | 0.365 | 0.173 | 0.201 | 0.96 | 0.814 | 0.91 | 0.35 | 0.486 | 0.395 | 0.302 | 0.334 | 0.244 | 0.242 | 0.236 | 0.151 | 0.188 | – | 0.197 |
| ChaGo-K-1 | 1.01 | 0.907 | 0.661 | 0.267 | 0.194 | 0.964 | 0.535 | 0.939 | 0.378 | 0.273 | 0.263 | 0.251 | 0.232 | 0.175 | 0.153 | 0.638 | 0.476 | 0.49 | 0.163 | 0.128 |
| NCI-H1755 | 0.83 | 0.673 | 0.734 | 0.519 | 0.316 | 1.04 | 0.957 | 0.653 | 0.222 | 0.183 | 0.43 | 0.434 | 0.426 | 0.299 | 0.286 | 0.572 | 0.622 | 0.531 | 0.319 | 0.243 |
| NCI-H2228 | 0.409 | 0.268 | 0.188 | 0.116 | 0.136 | 1.05 | 1.3 | 0.167 | 0.0999 | 0.105 | 0.329 | 0.352 | 0.265 | 0.153 | 0.238 | 0.305 | 0.337 | 0.155 | 0.121 | 0.144 |
